# According to patent US20220056019A1, “FARNESOID X RECEPTOR AGONISTS AND USES THEREOF” (Metacrine, Inc., priority 2018, published 2022):
# Target: T1, hFXR (Homo sapiens, UniProt Q96RI1)
# T1 construct: expressed in transfected cells; host or cells: CV-1 cells
# T1 sequence (Q96RI1 1-486): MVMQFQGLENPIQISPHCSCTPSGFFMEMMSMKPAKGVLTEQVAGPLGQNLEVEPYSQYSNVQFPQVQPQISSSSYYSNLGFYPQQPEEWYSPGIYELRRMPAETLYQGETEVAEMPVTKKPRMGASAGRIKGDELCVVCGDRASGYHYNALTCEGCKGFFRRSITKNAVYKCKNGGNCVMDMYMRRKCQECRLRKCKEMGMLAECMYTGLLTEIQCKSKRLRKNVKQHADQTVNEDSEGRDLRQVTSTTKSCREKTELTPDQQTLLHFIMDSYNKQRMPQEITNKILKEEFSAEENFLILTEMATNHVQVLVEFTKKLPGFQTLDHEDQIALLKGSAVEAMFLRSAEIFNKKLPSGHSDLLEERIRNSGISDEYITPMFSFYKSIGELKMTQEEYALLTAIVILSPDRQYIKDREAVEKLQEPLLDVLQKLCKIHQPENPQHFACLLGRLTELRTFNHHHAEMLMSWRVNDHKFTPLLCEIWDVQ
# T1 sequence (P19793 1-462 partner): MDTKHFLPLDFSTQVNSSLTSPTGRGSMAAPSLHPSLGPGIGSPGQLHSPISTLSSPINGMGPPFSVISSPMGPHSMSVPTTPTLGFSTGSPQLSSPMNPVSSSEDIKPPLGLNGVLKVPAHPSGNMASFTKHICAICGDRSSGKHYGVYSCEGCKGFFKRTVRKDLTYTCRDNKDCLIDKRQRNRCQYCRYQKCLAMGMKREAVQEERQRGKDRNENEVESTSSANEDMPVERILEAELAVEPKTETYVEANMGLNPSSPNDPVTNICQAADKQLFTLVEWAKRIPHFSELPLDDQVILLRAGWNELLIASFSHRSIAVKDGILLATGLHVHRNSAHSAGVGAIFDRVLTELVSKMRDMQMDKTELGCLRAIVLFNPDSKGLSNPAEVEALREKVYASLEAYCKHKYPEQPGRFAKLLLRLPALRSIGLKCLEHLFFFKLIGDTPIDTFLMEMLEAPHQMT
# Experiment: In Vitro FXR Assay (TK): TK-ECRE-luc reporter in transfected CV-1 cells
# Format: cell-based
# Settings: 18 hrs incubation, luminescence
# Experimental: Example B-1: In Vitro FXR Assay (TK)
# CV-1 cells were seeded at a density of 2,000,000 cells in a T175 flask with DMEM+10% charcoal double-stripped FBS and incubated at 37° C. in 5% CO2 for 18 h (O/N).
# After 18 h of incubation, the medium in the T175 flask was changed with fresh DMEM+10% charcoal super-stripped serum. In a polypropylene tube, 2500 μL OptiMEM (Life Technologies, Cat #31985-062) was combined with expression plasmids for hFXR, hRXR, TK-ECRE-luc and pCMX-YFP. The tube was then briefly vortexed and incubated at room temperature for 5 minutes. Transfection reagent (X-tremeGENE HP from Roche, Cat #06 366 236 001) was added to the OptiMEM/plasmid mixture vortexed and incubated at room temperature for 20 minutes. Following incubation, the transfection reagent/DNA mixture complex was added to cells in the T175 flask and the cells were incubated at 37° C. in 5% CO2 for 18 h (O/N).
# Compounds were serially diluted in DMSO and added to transfected CV-1 cells. The cells were then incubated for 18 hrs. The next day cells were lysed and examined for luminescence.
row,EC50,Compound
1,50 to 1000 nM,"COc1ccc(C23CCC(CN(c4cc(C5CCN(C(C)C)C5)ccn4)C(=O)[C@H]4CC[C@H](OC(=O)N5CC(O)C5)CC4)(CC2)CC3)cc1C (stereo partly drawn) [Compound 23.18, 4-((4-(1-(Isopropylpyrrrolidin-3-yl)pyridin-2-yl)((4-(4-methoxy-3-methylphenyl)bicyclo[2.2.2]octan-1-yl)methyl)carbamoyl)cyclo-hexyl trans-3-hydroxyazetidine-1-carboxylate]"
2,≤ 50 nM,"COc1ccc(C23CCC(CN(c4ccc(F)c(-c5cnn(C(C)C)c5)c4)C(=O)[C@H]4CC[C@H](OC(=O)N5CC(O)C5)CC4)(CC2)CC3)cc1C [Compound 26.03, 4-((4-Fluoro-3-(1-isopropyl-1H-pyrazol-4-yl)phenyl)((4-(4-methoxy-3-methylphenyl)bicyclo[2.2.2]octan-1-yl)methyl)carbamoyl)(trans-cyclohexyl) 3-hydroxyazetidine-1-carboxylate]"
3,≤ 50 nM,"COc1ccc(C23CCC(CN(c4cc(-c5cnc(C(C)C)s5)ccn4)C(=O)[C@H]4CC[C@H](NC(C)=O)CC4)(CC2)CC3)cc1C [Compound 9.04, (trans)-4-Acetamido-N-(4-(2-isopropylthiazol-5-yl)pyridin-2-yl)-N-((4-(4-methoxy-3-methylphenyl)bicyclo[2.2.2]octan-1-yl)methyl)cyclohexanecarboxamide]"
4,≤ 50 nM,"COc1ccc(C23CCC(CN(c4cc(-c5coc(C(C)C)n5)ccn4)C(=O)[C@H]4CC[C@H](OC(=O)N5CC(OCCO)C5)CC4)(CC2)CC3)cc1C [Compound 23.05, 4-((4-(2-Isopropyloxazol-4-yl)2-yl)((4-(4-methoxy-3-methylphenyl)bicyclo[2.2.2]octan-1-yl)methyl)carbamoyl)(trans-cyclohexyl) 3-(2-hydroxyethoxy)azetidine-1-carboxylatepyridin-]"
5,≤ 50 nM,"COc1ccc(C23CCC(CN(c4cc(-c5cnn(C(C)C)c5)ccn4)C(=O)[C@H]4CC[C@H](NC(=O)OC(C)C)CC4)(CC2)CC3)cc1C [Compound 8.02, (trans)-Isopropyl (4-((4-(1-isopropyl-1H-pyrazol-4-yl)pyridin-2-yl)((4-(4-methoxy-3-methylphenyl)bicyclo[2.2.2]octan-1-yl)methyl)carbamoyl)cyclohexyl)car-bamate]"

# Second part, the molecule before the results:
row,Compound,EC50
1,"COc1ccc([C@H]2CC[C@H](CN(c3cc(-c4cnn(C(C)C)c4)ccn3)C(=O)[C@H]3CC[C@H](OC(=O)NCC(F)(F)CO)CC3)CC2)cc1C [Compound 2.34, trans-4-((4-(1-Isopropyl-1H-pyrazol-4-yl)pyridin-2-yl)(((trans)-4-(4-methoxy-3-methylphenyl)cyclohexyl)methyl)carbamoyl) cyclohexyl(2,2-difluoro-3-hydroxypropyl)carbamate]",≤ 50 nM
2,"COc1ccc(C23CCC(CN(c4nccc(-c5cnn(C(C)C)c5)n4)C(=O)[C@H]4CC[C@H](OC(=O)N5CC(O)C5)CC4)(CC2)CC3)cc1C [Compound 4.60, 4-((4-(1-Isopropyl-1H-pyrazol-4-yl)pyrimidin-2-yl)((4-(4-methoxy-3-methylphenyl)bicyclo [2.2.2]octan-1-yl)methyl)carbamoyl)(trans-cyclohexyl) 3-hydroxyazetidine-1-carboxylate]",≤ 50 nM
3,"COc1ccc(C23CCC(CN(c4cc(-c5cc(C6CC6)on5)ccn4)C(=O)[C@H]4CC[C@H](OC(=O)N5CC(O)C5)CC4)(CC2)CC3)cc1C [Compound 4.26, 4-((4-(5-Cyclopropylisoxazol-3-yl)pyridin-2-yl)((4-(4-methoxy-3-methylphenyl)bicyclo[2.2.2]octan-1-yl)methyl)carbamoyl) cyclohexyl 3-hydroxyazetidine-trans-1-carboxylate]",≤ 50 nM
4,"COc1ccc([C@H]2CC[C@H](CN(c3cccc(-c4cnn(C(C)C)c4)c3)C(=O)[C@H]3CC[C@H](NC(=O)OC4COC4)CC3)CC2)cc1C [Compound 6.05, Oxetan-3-yl (trans-4-((3-(1-isopropyl-1H-pyrazol-4-yl)phenyl)((trans-4-(4-methoxy-3-methylphenyl)cyclohexyl)meth-yl)carbamoyl)cyclohexyl)carbamate]",≤ 50 nM
5,"COc1ccc(C23CCC(CN(c4cc(-c5cnn(C(C)C)c5)cc(Cl)n4)C(=O)[C@H]4CC[C@H](OC(=O)N5CC(O)C5)CC4)(CC2)CC3)cc1C [Compound 4.40, 4-((6-Chloro-4-(1-isopropyl-1H-pyrazol-4-yl)pyridin-2-yl)((4-(4-methoxy-3-methylphenyl)bicyclo[2.2.2]octan-1-yl)methyl)carbamoyl) cyclohexyl trans-3-hydroxyazetidine-1-carboxylate]",≤ 50 nM
6,"COc1ccc([C@H]2CC[C@H](CN(c3cc(-c4cnc(C(C)C)s4)ccn3)C(=O)[C@H]3CC[C@H](OC(=O)N4CCN(C)CC4)CC3)CC2)cc1C [Compound 2.40, trans-4-((4-(2-Isopropylthiazol-5-yl)pyridin-2-yl)((trans-4-(4-methoxy-3-methylphenyl)cyclohexyl)methyl)carbamoyl)cyclohexyl 4-methylpiperazine-1-carboxylate]",≤ 50 nM
7,"COc1ccc([C@H]2CC[C@H](CN(c3cc(-c4cnn(C(C)C)c4)ccn3)C(=O)[C@H]3CC[C@H](OC(=O)N4CC(N(C)C)C4)CC3)CC2)cc1C [Compound 2.13, trans-4-((4-(1-Isopropyl-1H-pyrazol-4-yl)pyridin-2-yl)(((trans)-4-(4-methoxy-3-methylphenyl)cyclohexyl)methyl)carbamoyl) cyclohexyl 3-(dimethylamino)azetidine-1-carboxylate]",≤ 50 nM
8,"COc1ccc(C23CCC(CN(c4cnnc(-c5cnn(C(C)C)c5)c4)C(=O)[C@H]4CC[C@H](OC(=O)N5CC(O)C5)CC4)(CC2)CC3)cc1C [Compound 4.61, 4-((6-(1-Isopropyl-1H-pyrazol-4-yl)pyridazin-4-yl)((4-(4-methoxy-3-methylphenyl)bicyclo [2.2.2]octan-1-yl)methyl)carbamoyl)(trans-cyclohexyl) 3-hydroxyazetidine-1-carboxylate]",50 to 1000 nM
9,"COc1ccc(C23CCC(CN(c4cc(-c5cnc(C(C)C)s5)ccn4)C(=O)[C@H]4CC[C@H](OC(=O)N5CC(CO)C5)CC4)(CC2)CC3)cc1C [Compound 4.29, 4-((4-(2-Isopropylthiazol-5-yl)pyridin-2-yl)((4-(4-methoxy-3-methylphenyl)bicyclo[2.2.2]octan-1-yl)methyl)carbamoyl)(trans-cyclohexyl) 3-(hydroxymethyl)azetidine-1-carboxylate]",≤ 50 nM
10,"COc1ccc([C@H]2CC[C@H](CN(c3cc(-c4cnn(C(C)C)c4)ccn3)C(=O)[C@H]3CC[C@H](OC(=O)NCC(C)(C)O)CC3)CC2)cc1Cl [Compound 2.05, (trans)-4-((((trans)-4-(3-Chloro-4-methoxyphenyl)cyclohexyl)methyl)(4-(1-isopropyl-1H-pyrazol-4-yl)pyridin-2-yl)carbamoyl)cyclohexyl (2-hydroxy-2-methylpropyl)carbamate]",≤ 50 nM
11,"COc1ccc(C23CCC(CN(c4cc(-c5cnn(C(C)C)c5)ccn4)C(=O)[C@H]4CC[C@H](OC(=O)N5CC(CCO)C5)CC4)(CC2)CC3)cc1C [Compound 4.43, 4-((4-(1-Isopropyl-1H-pyrazol-4-yl)pyridin-2-yl) ((4-(4-methoxy-3-methylphenyl)bicyclo [2.2.2]octan-1-yl)methyl)carbamoyl)cyclohexyl trans-3-(2-hydroxyethyl) azetidine-1-carboxylate]",≤ 50 nM
